The source of these data is US20230148450A9, “BICYCLIC HETEROARYL COMPOUNDS AND USES THEREOF” (Revolution Medicines, Inc., priority 2019, published 2023).

Usually IC50 stands for the concentration needed to halve the response being measured.

The structures appear in SMILES notation.

The target of this assay is T1, SOS1-mediated exchange of KRAS-4B:GDP to KRAS-4B:GTP (Homo sapiens, UniProt Q07889).
T1 construct: SOS1 (Cytoskeleton Inc., Cat. CS-GE02); purchased Cytoskeleton Inc. CS-GE02 (SOS1); CSRS03 (KRAS4-B)
T1 sequence (Q07889 564-1049 limits assumed): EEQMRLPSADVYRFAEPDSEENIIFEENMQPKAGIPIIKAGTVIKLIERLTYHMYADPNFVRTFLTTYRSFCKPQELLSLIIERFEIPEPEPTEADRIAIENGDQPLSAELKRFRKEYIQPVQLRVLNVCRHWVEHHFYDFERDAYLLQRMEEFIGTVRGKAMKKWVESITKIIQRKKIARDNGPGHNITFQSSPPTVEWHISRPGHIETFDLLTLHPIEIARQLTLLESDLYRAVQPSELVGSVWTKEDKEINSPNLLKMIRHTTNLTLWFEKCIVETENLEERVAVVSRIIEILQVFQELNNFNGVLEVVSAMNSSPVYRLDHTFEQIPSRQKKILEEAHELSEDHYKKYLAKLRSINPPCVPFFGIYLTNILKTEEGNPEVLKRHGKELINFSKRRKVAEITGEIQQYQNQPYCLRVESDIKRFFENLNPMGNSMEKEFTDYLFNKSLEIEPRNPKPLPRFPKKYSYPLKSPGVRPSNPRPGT
In words: Bodipy-FL-GTP Association Assay. The class given is biochemical. To be noted: SOS1 GEF activity on KRAS-4B, 22° C. As for the experimental part: A low IC50 value for a given compound is indicative of high potency of said compound in inhibiting the guanine nucleotide exchange factor (GEF) activity of SOS1 on KRAS-4B in this assay setting. Reagents: BODIPY FL GTP (ThermoFisher Scientific, Cat. G12411); KRAS4-B (Cytoskeleton Inc., Cat. CSRS03); SOS1 (Cytoskeleton Inc., Cat. CS-GE02); 2× Assay Buffer: 40 mM Tris-HCl, pH 7.5; 100 mM NaCl; 20 mM MgCl2; 0.1 mg/mL BSA; 0.02% NP-40 Assay Procedure: Test compounds were dissolved in DMSO to create 20 mM master stocks. The stocks were diluted in a 3× dilution series in 100% DMSO to achieve 100× compound stocks. A 1 μl spot of each test compound stock was delivered to two adjacent wells of a 96-well assay plate prior to running the assay. Reaction Mix preparation: The following were mixed in order at room temperature to obtain the “Reaction Mix” (5.75 mL 2× Exchange Buffer; 3.22 mL MilliQ ddH2O; 3 μL 5 mM BODIPY FL GTP; 230 μL 50 μM KRAS-4B; 9.203 mL Total volume. Reaction initiation: 80 μL of Reaction Mix was pipetted into each well of a half-area black 96-well plate (Corning, Cat. 3686) containing either a 1 μL spot of DMSO or a 1 μL spot test compound at the concentrations listed above. 20 μL of 1 μM SOS1 was then added to each well to initiate the reaction. For the no GEF control wells this was replaced with 1× exchange buffer. Kinetic measurement: The reaction was monitored in a SpectraMax M2 Microplate Reader (Molecular Devices) under the following protocol: 5 second rapid circular mixing before first read; 61 readings, 30 seconds apart; Assay temperature: 22° C.; Excitation wavelength: 485 nm; Emission wavelength: 513 nm. Data Analysis: The V max values for the SOS1-mediated BODIPY FL GTP exchange curves in the presence of test compounds were normalized to the most dilute test sample columns or DMSO only control wells to give the % Activity for each concentration of test compound. Plots of % Activity vs. the Log10 of the compound concentration were fit by non-linear regression to a 4-parameter logistic model.
`COCC(=O)N1CC=C(c2cnc3c(N[C@H](C)c4cccc(C(F)(F)F)c4)nccn23)CC1` [Example 22] showed an IC50 of over 5 µM.
The value for `C[C@@H](Nc1nccn2cc(C(=O)NC[C@H]3CCOC3)nc12)c1cccc(C(F)(F)F)c1` [Example 17] was over 5 µM; that for `C[C@@H](Nc1ncnn2cc(C3=CCNCC3)cc12)c1cc(N)cc(C(F)(F)F)c1` [Example 12, N-[(1R)-1-[3-amino-5-(trifluoromethyl)phenyl]ethyl]-6-(1,2,3,6-tetrahydropyridin-4-yl)pyrrolo[2,1-f][1,2,4]triazin-4-amine] was under 1 µM.
Molecule `C[C@@H](Nc1ncnn2cc(C3=CCNCC3)cc12)c1cccc(C(F)(F)F)c1` [Example 14] registered an IC50 of 1 to 5 µM.
In the case of `CC(=O)N1CC=C(c2cc3c(N[C@H](C)c4cccc(C(F)(F)F)c4)ncnn3c2)CC1` [Example 15] it was over 5 µM; in that of `C[C@@H](Nc1ncnc2sc(C3(O)CCC(O)CC3)cc12)c1cc(N)cc(C(F)(F)F)c1` (stereo partly drawn) [Example 7, 1-(4-{[(1R)-1-[3-amino-5-(trifluoromethyl)phenyl]ethyl]amino}thieno[2,3-d]pyrimidin-6-yl)cyclohexane-1,4-diol], under 1 µM; in that of `Cc1nc(N[C@H](C)c2cccc(C(F)(F)F)c2)c2sc(C3=CCNCC3)cc2n1` [Example 1, 2-methyl-6-(1,2,3,6-tetrahydropyridin-4-yl)-N-[(1R)-1-[3-(trifluoromethyl)phenyl]ethyl]thieno [3,2-d] pyrimidin-4-amine], 1 to 5 µM.
In the case of `Cc1nc(N[C@H](C)c2cccc(C(F)(F)F)c2)c2sc([C@]3(O)CC[C@@H](O)CC3)cc2n1` [Example 5, trans-1-(2-methyl-4-{[(1R)-1-[3-(trifluoromethyl)phenyl]ethyl]amino}thieno[3,2-d]pyrimidin-6-yl) cyclohexane-1,4-diol] it was over 5 µM; in that of `C[C@@H](Nc1nccn2cc(C(=O)N3CCN(C)CC3)nc12)c1cccc(C(F)(F)F)c1` [Example 18], over 5 µM.
The value for `COCC(=O)N1CC=C(c2cc3c(N[C@H](C)c4cc(N)cc(C(F)(F)F)c4)ncnc3s2)CC1` [Example 4, 1-[4-(4-{[(1R)-1-[3-amino-5-(trifluoromethyl)phenyl]ethyl]amino}thieno[2,3-d]pyrimidin-6-yl)-1,2,3,6-tetrahydropyridin-1-yl]-2-methoxyethan-1-one] was 1 to 5 µM.
As for `Cc1cn2nc(C(=O)N3CCOCC3)cc2c(N[C@H](C)c2cccc(C(F)(F)F)c2)n1` [Example 24], the IC50 was over 5 µM.
As for `Cc1cn2nc(C(=O)N3CCN(C)CC3)cc2c(N[C@H](C)c2cccc(C(F)(F)F)c2)n1` [Example 25], the IC50 is over 5 µM.
The value for `C[C@@H](Nc1nccn2cc(C(=O)N3CCN(C)CC3)nc12)c1cc(N)cc(C(F)(F)F)c1` [Example 10, N-[(1R)-1-[3-amino-5-(trifluoromethyl)phenyl]ethyl]-2-(4-methylpiperazine-1-carbonyl)imidazo[1,2-a]pyrazin-8-amine] was 1 to 5 µM; that for `C[C@@H](Nc1ncnc2cc(C3=CCNCC3)sc12)c1cc(N)cc(C(F)(F)F)c1` [Example 9, N-[(1R)-1-[3-amino-5-(trifluoromethyl)phenyl]ethyl]-6-(1,2,3,6-tetrahydropyridin-4-yl)thieno[3,2-d]pyrimidin-4-amine] was under 1 µM.
The value for `CC(=O)N1CC=C(c2cc3c(N[C@H](C)c4cc(N)cc(C(F)(F)F)c4)ncnn3c2)CC1` [Example 13, 1-[4-[4-[[(1R)-1-[3-amino-5-(trifluoromethyl)phenyl]ethyl]amino]pyrrolo[2,1-f][1,2,4]triazin-6-yl]-3,6-dihydro-2H-pyridin-1-yl]ethanone] was 1 to 5 µM.
The value for `COc1nc(N[C@H](C)c2cccc(C(F)(F)F)c2)c2cc(C3=CCNCC3)cn2n1` [Example 21] was 1 to 5 µM; that for `CC(=O)N1CCN(c2cc3c(N[C@H](C)c4cccc(C(F)(F)F)c4)ncnn3c2)CC1` [Example 27] was under 1 µM; that for `Cc1nc(N[C@H](C)c2cc(N)cc(C(F)(F)F)c2)c2cc(C3=CCNCC3)sc2n1` [Example 26] was 1 to 5 µM.
In turn, `Cc1nc(N[C@H](C)c2cccc(C(F)(F)F)c2)c2cc(C3=CCNCC3)cn2n1` [Example 19] displayed a half-maximal inhibitory concentration (IC50) of over 5 µM.
The value for `C[C@@H](Nc1nc(C2CC2)nn2cc(C3=CCNCC3)cc12)c1cccc(C(F)(F)F)c1` [Example 20] was over 5 µM; that for `C[C@@H](NC1=NC=NC2SC(C3(O)CCC(C(=O)N(C)C)CC3)=CC12)c1cc(N)cc(C(F)(F)F)c1` (stereo partly shown) [Example 23] was under 1 µM; that for `C[C@@H](Nc1ncnn2cc(C3CCNCC3)cc12)c1cc(N)cc(C(F)(F)F)c1` [Example 11, N-[(1R)-1-[3-amino-5-(trifluoromethyl)phenyl]ethyl]-6-(piperidin-4-yl)pyrrolo[2,1-f][1,2,4]triazin-4-amine] was under 1 µM.
On to `C[C@@H](Nc1ncnn2cc(C(=O)N3CCOCC3)cc12)c1cc(N)cc(C(F)(F)F)c1` [Example 16], for which the IC50 is over 5 µM.
Take `C[C@@H](Nc1ncnc2sc(C3=CCNCC3)cc12)c1cc(N)cc(C(F)(F)F)c1` [Example 3, N-[(1R)-1-[3-amino-5-(trifluoromethyl)phenyl]ethyl]-6-(1,2,3,6-tetrahydropyridin-4-yl)thieno[2,3-d]pyrimidin-4-amine]: the 50% inhibitory concentration (IC50) is 1 to 5 µM.
The value for `Cc1nc(N[C@H](C)c2cccc(C(F)(F)F)c2)c2sc([C@]3(O)CC[C@H](O)CC3)cc2n1` [Example 6, cis-1-(2-methyl-4-{[(1R)-1-[3-(trifluoromethyl)phenyl]ethyl]amino}thieno[3,2-d]pyrimidin-6-yl)cyclohexane-1,4-diol] was 1 to 5 µM.
